From patent publication US12016357B2, “Glycoside compositions” (CARGILL, INCORPORATED, priority 2015, dated 2024)

Columns and labels:
[1] = Trained sensory panel rating of sweetness and bitterness intensity, Example 2 (measured values, S/B); assay type: in vivo; details: for Measured Bitterness / Measured Sweetness: citric acid buffer, scale 1-15; for Measured S/B: sweetness/bitterness ratio
Procedure: A trained sensory panel evaluated solutions of each rebaudioside D, rebaudioside M, rebaudioside G, rebaudioside O, rebaudioside N and rebaudioside E at 400 ppm and 600 ppm. Solutions were made in a citric acid buffer as the reference standard solutions described in Example 1. All solutions were heated to 55° C. for 12 minutes to ensure that all the glycoside material was completely dissolved. The solutions were allowed to cool to room temperature before serving to the panelists. Each solution was given a random 3-digit code and was served to the panelists in random order. Panelists dispensed 2 mL of each solution into their mouths from a pipette. The panelists were then asked to rate the “sweetness intensity” and “bitterness intensity” of the solutions and mark their responses on an un-anchored, 15 cm line scale. The length of the line corresponds to the scale values (1-15) on which the participants were trained. The panelists' responses were measured, compiled, and averaged for each sample (measured sweetness values and bitterness values). In between testing samples, the panelists cleansed their palates with water and apple slices. The panelists also waited 5 minutes between each sample. Rebaudioside D (purity of 94.4%) was obtained from ChromaDex™ Corp and rebaudioside M (purity 99.3%) was obtained from Cargill, Incorporated. Rebaudioside G (purity of 96.0%), Rebaudioside O (purity of 97.9%), Rebaudioside N (purity of 93.5%), Rebaudioside E (purity of 97.2%) were each obtained from ChromaaDex™ Corp. […] Also shown in Table 7 is the sweetness/bitterness ratios (S/B).

[2] = Trained sensory panel rating of sweetness intensity (SEV) and bitterness intensity, Example 1; assay type: in vivo; details: for Sweetness Avg. / Bitter Avg.: mean of five replicate tests; for Bitter Avg.: caffeine scale 1-15
Procedure: A sensory panel was trained to scale sweetness and bitterness. Reference tasting standards were prepared by dissolving respective standard material (sucrose for sweetness and caffeine for bitterness) into an aqueous citric acid buffer solution at pH 3.1 (distilled water containing 0.1% citric acid and 0.015% sodium citrate) according to the scale values shown in Table 1 below.
Solutions were made in the same citric acid buffer as the reference standard solutions. All solutions were heated to 55° C. for 12 minutes to ensure that all the glycoside material was completely dissolved. The solutions were allowed to cool to room temperature before serving to the panelists. Each solution was given a random 3-digit code and was served to the panelists in random order. Panelists dispensed 2 mL of each solution into their mouths from a pipette. The panelists were then asked to rate the “sweetness intensity” and “bitterness intensity” of the solutions and mark their responses on an un-anchored, 15 cm line scale. The length of the line corresponds to the scale values (1-15) on which the participants were trained. The panelists' responses were measured, compiled, and averaged for each sample. Each sample was tested by approximately 17 to 21 trained panelists.
In between testing samples, the panelists cleansed their palates with water and apple slices. The panelists also waited 5 minutes between each sample. Sweetness and bitter values of rebaudioside D (purity of 94.4%) and rebaudioside M (purity of […]) at varying concentrations were also obtained utilizing a sensory panel in a manner as described above. The sweetness is reported as sweetness and the sweetness is measured as a sucrose equivalent (SEV).
The sweetness and bitterness values of sweetener compositions containing Reb D or Reb M with other glycosides are shown in Tables 3-5. As described above, the samples were tasted by the panelist in random order. The tables show the concentration of the composition tested (ppm) as well as the ratio of one glycoside to another in the composition as a weight percentage.

[3] = 400 ppm in citric acid buffer pH 3.1
[4] = 600 ppm in citric acid buffer pH 3.1
[5] = total blend 400 ppm, citric acid buffer pH 3.1

Row | SMILES | Measured Bitterness ([1]; 400 ppm) | Measured Sweetness ([1]; 400 ppm) | Measured S/B ([1]; 400 ppm) | Measured Bitterness ([1]; 600 ppm) | Measured Sweetness ([1]; 600 ppm) | Measured S/B ([1]; 600 ppm) | Sweetness Avg. [2, 3] | Bitter Avg. [2, 3] | Sweetness Avg. [2, 4] | Bitter Avg. [2, 4] | Bitter [2, 5] | Sweetness [2, 5]
1 | C=C1C[C@@]23CC[C@H]4[C@@](C)(CCC[C@@]4(C)C(=O)O[C@@H]4O[C@H](CO)[C@@H](O)[C@H](O)[C@H]4O[C@@H]4O[C@H](CO)[C@@H](O)[C@H](O)[C@H]4O)[C@@H]2CC[C@]1(O[C@@H]1O[C@H](CO)[C@@H](O)[C@H](O[C@@H]2O[C@H](CO)[C@@H](O)[C@H](O)[C@H]2O)[C@H]1O[C@@H]1O[C@H](CO)[C@@H](O)[C@H](O)[C@H]1O)C3 [Reb D, Rebaudioside D] | 3.51 | 7.08 | 2.05 | 3.80 | 8.31 | 2.23 | 7.1 SEV | 3.6 | 8.3 SEV | 4.2 |  | 
2 | C=C1C[C@@]23CC[C@H]4[C@@](C)(CCC[C@@]4(C)C(=O)O[C@@H]4O[C@H](CO)[C@@H](O)[C@H](O)[C@H]4O[C@@H]4O[C@H](CO)[C@@H](O)[C@H](O)[C@H]4O)[C@@H]2CC[C@]1(O[C@@H]1O[C@H](CO)[C@@H](O)[C@H](O)[C@H]1O[C@@H]1O[C@H](CO)[C@@H](O)[C@H](O)[C@H]1O)C3 [Reb E, Rebaudioside E] | 2.93 | 4.53 | 1.55 | 2.98 | 6.29 | 2.11 |  |  |  |  |  | 
3 | C=C1C[C@@]23CC[C@H]4[C@@](C)(CCC[C@@]4(C)C(=O)O[C@@H]4O[C@H](CO)[C@@H](O)[C@H](O)[C@H]4O)[C@@H]2CC[C@]1(O[C@@H]1O[C@H](CO)[C@@H](O)[C@H](O[C@@H]2O[C@H](CO)[C@@H](O)[C@H](O)[C@H]2O)[C@H]1O)C3 [Reb G, Rebaudioside G] | 2.53 | 2.17 | 0.86 | 2.30 | 1.98 | 0.84 |  |  |  |  |  | 
4 | C=C1C[C@@]23CC[C@H]4[C@@](C)(CCC[C@@]4(C)C(=O)O[C@@H]4O[C@H](CO)[C@@H](O)[C@H](O[C@@H]5O[C@H](CO)[C@@H](O)[C@H](O)[C@H]5O)[C@H]4O[C@@H]4O[C@H](CO)[C@@H](O)[C@H](O)[C@H]4O)[C@@H]2CC[C@]1(O[C@@H]1O[C@H](CO)[C@@H](O)[C@H](O[C@@H]2O[C@H](CO)[C@@H](O)[C@H](O)[C@H]2O)[C@H]1O[C@@H]1O[C@H](CO)[C@@H](O)[C@H](O)[C@H]1O)C3 [Reb M, Rebaudioside M] | 3.65 | 7.76 | 2.14 | 3.76 | 8.38 | 2.26 | 7.7 SEV | 3.8 | 8.4 SEV | 4.2 |  | 
5 | C=C1C[C@@]23CC[C@H]4[C@@](C)(CCC[C@@]4(C)C(=O)O[C@@H]4O[C@H](CO)[C@@H](O)[C@H](O[C@@H]5O[C@H](CO)[C@@H](O)[C@H](O)[C@H]5O)[C@H]4O[C@@H]4O[C@@H](C)[C@H](O)[C@@H](O)[C@H]4O)[C@@H]2CC[C@]1(O[C@@H]1O[C@H](CO)[C@@H](O)[C@H](O[C@@H]2O[C@H](CO)[C@@H](O)[C@H](O)[C@H]2O)[C@H]1O[C@@H]1O[C@H](CO)[C@@H](O)[C@H](O)[C@H]1O)C3 [Reb N, Rebaudioside N] | 3.03 | 7.44 | 2.45 | 3.25 | 7.709 | 2.37 |  |  |  |  |  | 
6 | C=C1C[C@@]23CC[C@H]4[C@@](C)(CCC[C@@]4(C)C(=O)O[C@@H]4O[C@H](CO)[C@@H](O)[C@H](O[C@@H]5O[C@H](CO)[C@@H](O)[C@H](O)[C@H]5O)[C@H]4O[C@@H]4O[C@@H](C)[C@H](O)[C@@H](O[C@@H]5O[C@H](CO)[C@@H](O)[C@H](O)[C@H]5O)[C@H]4O)[C@@H]2CC[C@]1(O[C@@H]1O[C@H](CO)[C@@H](O)[C@H](O[C@@H]2O[C@H](CO)[C@@H](O)[C@H](O)[C@H]2O)[C@H]1O[C@@H]1O[C@H](CO)[C@@H](O)[C@H](O)[C@H]1O)C3 [Reb O, Rebaudioside O] | 2.98 | 7.47 | 2.51 | 3.23 | 7.669 | 2.37 |  |  |  |  | 3.1 | 7.2 SEV
